# In US20190343908A1, “Therapeutic Combination for the Treatment of Cancer” (Nerium Biotechnology Inc., priority 2011, published 2019):
# How the values were obtained:
# [1] = tested on: A375 melanoma cancer cell line; test: Methyl-Tetrazolium viability assay, A375; assay type: cell-based, human; details: for ABSORBANCE: 0.1 μg/mL cisplatin; for Average absorbance, MTT 24 h / Average absorbance, MTT 48 h / Average absorbance, MTT 72 h: A375 Run 1
# Text: (§1) Three different viability assays were chosen to complement each other and yielded results dependent on concentration and cell line: the Methyl Tetrazolium dye assay, the Sulforhodamine B fluorescent dye assay, and the Crystal Violet dye assay.
# The Methyl-Tetrazolium dye assay measures the activity of enzymes in mitochondria. The dye precursor is taken up by cells, where it undergoes reduction to the purple formazan. It measures only the mitochondrial activity and, thus, it is not always a reliable indication of whether the cells themselves are alive or dead, since even a recently dead cell has […] enzyme activity in mitochondria. Intracellular glucose concentration, pH, and time before assay all affect the measurements.
# (§2) The Methyl Tetrazolium, Sulforhodamine B, and Crystal Violet assays were used to assess cell viabilities. The incubation times were 24 hours, 48 hours, and 72 hours. The Nerium oleander extract Anvirzel™ (a hot water extract of oleander obtained from Salud Integral, Honduras) was tested in concentrations ranging from 0.01 ng/mL to 10 ng/mL.
# (§3) Cells were detached by trypsinization (Trypsin-0.25% EDTA, Invitrogen, 25200-072) during the logarithmic phase of culture growth and plated in 96-well plates (18.000 cells/well) (Corning, Costar 359) in a final volume of 200 μl of medium per well. […] The absorbance was measured after 24 hours, 48 hours, and 72 hours of incubation.
# For the Methyl-Tetrazolium assay, the dye (Sigma, M2128; 5 mg/mL, diluted in phosphate-buffered saline) was added to each well and plates were incubated for 3 hours at 37° C. After the end of the incubation period, the medium was discarded and the cells were rinsed with phosphate-buffered saline. Finally, the formazan crystals were dissolved in dimethylsulphoxide (Sigma, D4540).
# (§4) The optical density of each plate was measured on a μQuant spectrophotometer and the data were analyzed with Gen5 software (μQuant Biomolecular Spectrophotometer MQX200 and Gen5™ Microplate Data Collection & Analysis software, BioTek® Instruments. Inc, April 2008). Absorbance was measured at 570 nm for all assays and a second wavelength was measured in order to subtract noise. For the Methyl-Tetrazolium assay this second wavelength was 630 nm and for the Sulforhodamine B and Crystal Violet assays it was 690 nm.
# HT55 (colorectal cancer) = test: Sulforhodamine B viability assay, HT55; assay type: cell-based, human; design: key: absorbance (optical density) at 570 nm, second wavelength subtracted
# Text: as §1
# The Sulforhodamine B and Crystal Violet assays provide information about protein and were used to complement the Methyl-Tetrazolium dye assay. […] It is used for the quantification of cellular proteins of cultured cells. The assay using Crystal Violet, a dye that binds electrostatically to proteins and stains DNA, provides a reliable, simple assay for measuring viability of cells.
# as §2, §3
# For the Sulforhodamine B assay, 96-well plates were fixed by 10% trichloroacetic acid (Fluka, 91228) and were incubated at 4° C. for 1 hour. Afterwards, plates were rinsed with water and cells were stained with 0.4% Sulforhodamine B (Sigma, 341738), dissolved in 1% acetic acid (Carlo Ebra, 401422) for 15 minutes at room temperature (RT). The unbound stain was washed twice with 1% acetic acid. Finally, 10 mM Tris Buffer pH 10.5 (Sigma, T6791) was added to dissolve the dye.
# as §4
compound,measurement,setting,value
N.N.[Cl][Pt][Cl] [cisplatin],ABSORBANCE,"[1]; A375, 48 h",0.332
same,ABSORBANCE,"[1]; A375, 72 h",0.479
same,"Average absorbance, MTT 24 h",[1]; 0.1 μg/ml CDDP,0.34
same,"Average absorbance, MTT 48 h",[1]; 0.1 μg/ml CDDP,0.332
same,"Average absorbance, MTT 72 h",[1]; 0.1 μg/ml CDDP,0.479
same,"Average absorbance, MTT 24 h",[1]; 1 μg/ml CDDP,0.068
same,"Average absorbance, MTT 48 h",[1]; 1 μg/ml CDDP,0.048
same,"Average absorbance, MTT 72 h",[1]; 1 μg/ml CDDP,0.042
same,"Average absorbance, MTT 24 h",[1]; 10 μg/ml CDDP,0.066
same,"Average absorbance, MTT 48 h",[1]; 10 μg/ml CDDP,0.044
same,"Average absorbance, MTT 72 h",[1]; 10 μg/ml CDDP,0.04
same,"Average absorbance, MTT 24 h",[1]; 100 μg/ml CDDP,0.049
same,"Average absorbance, MTT 48 h",[1]; 100 μg/ml CDDP,0.038
same,"Average absorbance, MTT 72 h",[1]; 100 μg/ml CDDP,0.036
same,Average absorbance MTT,"[1]; A375 Run 2, 24 h, 0.1 μg/ml CDDP",0.367
same,Average absorbance MTT,"[1]; A375 Run 2, 24 h, 1 μg/ml CDDP",0.047
same,Average absorbance MTT,"[1]; A375 Run 2, 24 h, 10 μg/ml CDDP",0.049
same,Average absorbance MTT,"[1]; A375 Run 2, 24 h, 100 μg/ml CDDP",0.031
same,Average absorbance MTT,"[1]; A375 Run 2, 48 h, 0.1 μg/ml CDDP",0.598
same,Average absorbance MTT,"[1]; A375 Run 2, 48 h, 1 μg/ml CDDP",0.046
same,Average absorbance MTT,"[1]; A375 Run 2, 48 h, 10 μg/ml CDDP",0.045
same,Average absorbance MTT,"[1]; A375 Run 2, 48 h, 100 μg/ml CDDP",0.048
same,Average absorbance MTT,"[1]; A375 Run 2, 72 h, 0.1 μg/ml CDDP",0.696
same,Average absorbance MTT,"[1]; A375 Run 2, 72 h, 1 μg/ml CDDP",0.049
same,Average absorbance MTT,"[1]; A375 Run 2, 72 h, 10 μg/ml CDDP",0.042
same,Average absorbance MTT,"[1]; A375 Run 2, 72 h, 100 μg/ml CDDP",0.038
same,Average absorbance MTT,"[1]; A375 Run 3, 24 h, 0.1 μg/ml CDDP",0.25
same,Average absorbance MTT,"[1]; A375 Run 3, 24 h, 1 μg/ml CDDP",0.052
same,Average absorbance MTT,"[1]; A375 Run 3, 24 h, 10 μg/ml CDDP",0.054
same,Average absorbance MTT,"[1]; A375 Run 3, 24 h, 100 μg/ml CDDP",0.01
same,Average absorbance MTT,"[1]; A375 Run 3, 48 h, 0.1 μg/ml CDDP",0.422
same,Average absorbance MTT,"[1]; A375 Run 3, 48 h, 1 μg/ml CDDP",0.041
same,Average absorbance MTT,"[1]; A375 Run 3, 48 h, 10 μg/ml CDDP",0.037
same,Average absorbance MTT,"[1]; A375 Run 3, 48 h, 100 μg/ml CDDP",0.036
same,Average absorbance MTT,"[1]; A375 Run 3, 72 h, 0.1 μg/ml CDDP",0.413
same,Average absorbance MTT,"[1]; A375 Run 3, 72 h, 1 μg/ml CDDP",0.026
same,Average absorbance MTT,"[1]; A375 Run 3, 72 h, 10 μg/ml CDDP",0.033
same,Average absorbance MTT,"[1]; A375 Run 3, 72 h, 100 μg/ml CDDP",0.031
same,SRB Average,"HT55 (colorectal cancer); HT55, Run 1, 24 h, 0.1 μg/ml CDDP",2.17
same,SRB Average,"HT55 (colorectal cancer); HT55, Run 1, 24 h, 1 μg/ml CDDP",2.229
same,SRB Average,"HT55 (colorectal cancer); HT55, Run 1, 24 h, 10 μg/ml CDDP",2.246
same,SRB Average,"HT55 (colorectal cancer); HT55, Run 1, 24 h, 100 μg/ml CDDP",2.052
same,SRB Average,"HT55 (colorectal cancer); HT55, Run 1, 48 h, 0.1 μg/ml CDDP",2.437
same,SRB Average,"HT55 (colorectal cancer); HT55, Run 1, 48 h, 1 μg/ml CDDP",2.238
same,SRB Average,"HT55 (colorectal cancer); HT55, Run 1, 48 h, 10 μg/ml CDDP",2
same,SRB Average,"HT55 (colorectal cancer); HT55, Run 1, 48 h, 100 μg/ml CDDP",2.009
same,SRB Average,"HT55 (colorectal cancer); HT55, Run 1, 72 h, 0.1 μg/ml CDDP",2.413
same,SRB Average,"HT55 (colorectal cancer); HT55, Run 1, 72 h, 1 μg/ml CDDP",2.434
same,SRB Average,"HT55 (colorectal cancer); HT55, Run 1, 72 h, 10 μg/ml CDDP",2.222
same,SRB Average,"HT55 (colorectal cancer); HT55, Run 1, 72 h, 100 μg/ml CDDP",1.875
same,SRB Average,"HT55 (colorectal cancer); HT55 Run 2, 24 h, 0.1 μg/ml CDDP",2.445
same,SRB Average,"HT55 (colorectal cancer); HT55 Run 2, 24 h, 1 μg/ml CDDP",2.327
same,SRB Average,"HT55 (colorectal cancer); HT55 Run 2, 24 h, 10 μg/ml CDDP",2.387
same,SRB Average,"HT55 (colorectal cancer); HT55 Run 2, 24 h, 100 μg/ml CDDP",2.766
same,SRB Average,"HT55 (colorectal cancer); HT55 Run 2, 48 h, 0.1 μg/ml CDDP",2.408
same,SRB Average,"HT55 (colorectal cancer); HT55 Run 2, 48 h, 1 μg/ml CDDP",2.098
same,SRB Average,"HT55 (colorectal cancer); HT55 Run 2, 48 h, 10 μg/ml CDDP",1.814
same,SRB Average,"HT55 (colorectal cancer); HT55 Run 2, 48 h, 100 μg/ml CDDP",1.508
same,SRB Average,"HT55 (colorectal cancer); HT55 Run 2, 72 h, 0.1 μg/ml CDDP",2.564
same,SRB Average,"HT55 (colorectal cancer); HT55 Run 2, 72 h, 1 μg/ml CDDP",1.804
same,SRB Average,"HT55 (colorectal cancer); HT55 Run 2, 72 h, 10 μg/ml CDDP",1.74
same,SRB Average,"HT55 (colorectal cancer); HT55 Run 2, 72 h, 100 μg/ml CDDP",2.019
same,SRB Average,"HT55 (colorectal cancer); HT55 Run 3, 24 h, 0.1 μg/ml CDDP",2.101
same,SRB Average,"HT55 (colorectal cancer); HT55 Run 3, 24 h, 1 μg/ml CDDP",1.801
same,SRB Average,"HT55 (colorectal cancer); HT55 Run 3, 24 h, 10 μg/ml CDDP",2.557
same,SRB Average,"HT55 (colorectal cancer); HT55 Run 3, 24 h, 100 μg/ml CDDP",2.038
same,SRB Average,"HT55 (colorectal cancer); HT55 Run 3, 48 h, 0.1 μg/ml CDDP",2.648
same,SRB Average,"HT55 (colorectal cancer); HT55 Run 3, 48 h, 1 μg/ml CDDP",2.071
same,SRB Average,"HT55 (colorectal cancer); HT55 Run 3, 48 h, 10 μg/ml CDDP",2.649
same,SRB Average,"HT55 (colorectal cancer); HT55 Run 3, 48 h, 100 μg/ml CDDP",1.727
same,SRB Average,"HT55 (colorectal cancer); HT55 Run 3, 72 h, 0.1 μg/ml CDDP",2.177
same,SRB Average,"HT55 (colorectal cancer); HT55 Run 3, 72 h, 1 μg/ml CDDP",1.424
same,SRB Average,"HT55 (colorectal cancer); HT55 Run 3, 72 h, 10 μg/ml CDDP",2.784
same,SRB Average,"HT55 (colorectal cancer); HT55 Run 3, 72 h, 100 μg/ml CDDP",1.831
